Broadly, the IC50 is the concentration needed to halve the response being measured.

Chain of Recombinant human HSD17B13 (Q7Z5P4 20-300): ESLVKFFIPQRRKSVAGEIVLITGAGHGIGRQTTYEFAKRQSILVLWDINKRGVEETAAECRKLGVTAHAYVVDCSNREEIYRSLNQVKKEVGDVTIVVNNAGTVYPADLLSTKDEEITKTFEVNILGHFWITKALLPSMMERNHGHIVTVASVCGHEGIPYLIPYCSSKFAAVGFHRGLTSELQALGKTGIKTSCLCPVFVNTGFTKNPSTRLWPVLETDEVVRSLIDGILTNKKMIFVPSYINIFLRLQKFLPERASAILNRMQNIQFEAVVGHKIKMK

The target in this assay is Recombinant human HSD17B13 (Homo sapiens (Human), UniProt Q7Z5P4). Kind of assay: HSD17B13 rapid-fire mass spectrometry assay (RF/MS assay). In kind it is biochemical. The following applies: inhibition of HSD17B13; LTB4 10 μM, NAD+ 0.5 mM, RT 3 h; IC50 ranges A-E. The method in brief:
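Sf9-expressed human HSD17B13 (80 nM) with 10 μM LTB4 and 0.5 mM NAD+, incubated with compound (0–100 μM) for 3 h at RT in Tris pH 7.5/BSA/Tween-20. After formic acid quench, LTB4 conversion to 12-oxo-LTB4 measured by RapidFire MS/MS. IC50 from normalised residual activity, duplicates.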
`COc1cc(C(=O)O)ccc1NS(=O)(=O)N1Cc2ccc(-c3ccc(F)cc3)cc2C1` [Example 338]: the 50% inhibitory concentration (IC50) was in the range of 100 to 500 nM.
Take `COc1cc(C(=O)O)ccc1NS(=O)(=O)c1ccc(-c2ccc3c(c2)C(C)(C)CCC3(C)C)cc1F` [Example 339]: the IC50 fell in the range of 500 to 1000 nM.
With `COc1cc(C(=O)O)ccc1NS(=O)(=O)c1ccc(-c2ccc(C3CCCCC3)cc2)cn1` [Example 340], the IC50 was in the range of 1000 to 100000 nM.
The value for `COc1cc(C(=O)O)ccc1NS(=O)(=O)c1ccc(C2=CCN(c3ccccc3)CC2)cc1F` [Example 341] was 500 to 1000 nM; that for `COc1cc(C(=O)O)ccc1NS(=O)(=O)N1Cc2ccc(C#CC3CCCC3)cc2C1` [Example 342] was 500 to 1000 nM.
As for `COc1cc(C(=O)O)ccc1NS(=O)(=O)c1ccc(C2=CCC(c3ccccc3)CC2)cc1F` (stereo not shown) [Example 343, 4-((3-fluoro-2′,3′,4′,5′-tetrahydro-[1,1′:4′,1″-terphenyl])-4-sulfonamido)-3-methoxybenzoic acid], the 50% inhibitory concentration (IC50) is below 100 nM.
Regarding `COc1cc(C(=O)O)ccc1NS(=O)(=O)N1Cc2nc(-c3ccc(C4CCCCC4)cc3)sc2C1` [Example 344], the IC50 lay within 500 to 1000 nM.
In the case of `COc1cc(C(=O)O)ccc1NS(=O)(=O)N1Cc2nc(C#CC3CCCC3)sc2C1` [Example 345], the IC50 was 100 to 500 nM.
`COc1cc(C(=O)O)ccc1NS(=O)(=O)c1ccc(-c2ccc(C3CCCCC3)cc2)nc1` [Example 346]: the 50% inhibitory concentration (IC50) was in the range of 1000 to 100000 nM.
As for `COc1cc(C(=O)O)ccc1NS(=O)(=O)c1csc(N2CCN(C(=O)OC(C)C)CC2)n1` [Example 347], the IC50 lay in the range of 1000 to 100000 nM.
`COc1cc(C(=O)O)ccc1NS(=O)(=O)c1csc(-c2ccc(C3CCC(C(F)(F)F)CC3)cc2)n1` (stereo not shown) [Example 348]: the IC50 was below 100 nM.
Regarding `COc1cc(C(=O)O)ccc1NS(=O)(=O)c1csc(-c2ccc(C3=CCCCC3)cc2)n1` [Example 349], the half-maximal inhibitory concentration (IC50) is below 100 nM.
Consider `CCC[C@H]1CC[C@H](c2ccc(-c3nc(S(=O)(=O)Nc4ccc(C(=O)O)cc4OC)cs3)cc2)CC1` [Example 350], for which the half-maximal inhibitory concentration (IC50) was below 100 nM.
Consider `COc1cc(C(=O)O)ccc1NS(=O)(=O)c1csc(-c2ccc(C3CCC3)cc2)n1` [Example 351], for which the IC50 is below 100 nM.
Turning to `CC[C@H]1CC[C@H](c2ccc(-c3nc(S(=O)(=O)Nc4ccc(C(=O)O)cc4OC)cs3)cc2)CC1` [Example 352], the 50% inhibitory concentration (IC50) was below 100 nM.
With `COc1cc(C(=O)O)ccc1NS(=O)(=O)c1csc(-c2ccc(C3CCC(C(C)(C)C)CC3)cc2)n1` (stereo not shown) [Example 353, 4-((2-(4-(4-(tert-butyl)cyclohexyl)phenyl)thiazole)-4-sulfonamido)-3-methoxybenzoic acid], the IC50 is below 100 nM.
The value for `COc1cc(C(=O)O)ccc1NS(=O)(=O)c1csc(C2=CCC(c3ccccc3)CC2)n1` (stereo not shown) [Example 354] was below 100 nM.
For `COc1cc(C(=O)O)ccc1NS(=O)(=O)c1ccc(-c2cnn(C3CCCCC3)c2)cc1F` [Example 355] the value was 100 to 500 nM.
Take `COc1cc(C(=O)O)ccc1NS(=O)(=O)c1ccc(C2=CCC3(CC2)OCCO3)cc1F` [Example 356]: the concentration for half-maximal inhibition (IC50) lay in the range of 100 to 500 nM.
Consider `COc1cc(C(=O)O)ccc1NS(=O)(=O)c1ccc(C2CCC(c3ccccc3)CC2)cc1F` (stereo not shown) [Example 357], for which the concentration for half-maximal inhibition (IC50) fell in the range of 100 to 500 nM.
`COc1cc(C(=O)O)ccc1NS(=O)(=O)N1Cc2nc(C3=CCC(F)(F)CC3)sc2C1` [Example 358]: the IC50 lay in the range of 100 to 500 nM.
Consider `COc1cc(C(=O)O)ccc1NS(=O)(=O)N1Cc2nc(C3=CCC(c4ccccc4)CC3)sc2C1` (stereo not shown) [Example 359, 3-methoxy-4-((2-(1,2,3,6-tetrahydro-[1,1′-biphenyl]-4-yl)-5,6-dihydro-4H-pyrrolo[3,4-d]thiazole)-5-sulfonamido)benzoic acid], for which the IC50 was below 100 nM.
The value for `COc1cc(C(=O)O)ccc1NS(=O)(=O)N1Cc2cccc(-c3ccc(C4CCCCC4)cc3)c2C1` [Example 360] was 1000 to 100000 nM; that for `COc1cc(C(=O)O)ccc1NS(=O)(=O)c1ccc(-c2ccc(C3CCCCC3)cc2)cc1` [Example 361] was 1000 to 100000 nM.
`COc1cc(C(=O)O)ccc1NS(=O)(=O)N1Cc2nc(C3=CCC(C(C)(C)C)CC3)sc2C1` (stereo not shown) [Example 362]: the 50% inhibitory concentration (IC50) fell in the range of 100 to 500 nM.
Turning to `COc1cc(C(=O)O)ccc1NS(=O)(=O)N1Cc2ccc(-c3ccc(C4CCCCC4)cc3)cc2C1` [Example 364], the IC50 was 500 to 1000 nM.
The value for `COc1cc(C(=O)O)ccc1NS(=O)(=O)c1csc(-c2cccc(C3CCCCC3)c2)n1` [Example 366] was 100 to 500 nM; that for `COc1cc(C(=O)O)ccc1NS(=O)(=O)c1csc(-c2ccc(C3CCC(OC(F)(F)F)CC3)cc2)n1` (stereo not shown) [Example 367] was below 100 nM.
Turning to `COc1cc(C(=O)O)ccc1NS(=O)(=O)c1csc(-c2ccc(C3CCCC(C)(C)C3)cc2)n1` (stereo not shown) [Example 368], the half-inhibitory concentration (IC50) was in the range of 100 to 500 nM.
The value for `COc1cc(C(=O)O)ccc1NS(=O)(=O)c1csc(-c2ccc(C3CCOCC3)cc2)n1` [Example 370] was 500 to 1000 nM; that for `COc1cc(C(=O)O)ccc1NS(=O)(=O)c1csc(-c2ccc(C3CCC(F)(F)CC3)cc2)n1` [Example 371] was 100 to 500 nM.
With `COc1cc(C(=O)O)c(F)cc1NS(=O)(=O)c1csc(-c2ccc(C3CCC(C)(C)CC3)cc2)n1` [Example 372], the IC50 was below 100 nM.
For the molecule `CCC[C@H]1CC[C@H](C2CC=C(c3nc(S(=O)(=O)Nc4ccc(C(=O)O)cc4OC)cs3)CC2)CC1` (stereo partly shown) [Example 373], the IC50 fell in the range of 100 to 500 nM.
For `COc1cc(C(=O)O)ccc1NS(=O)(=O)c1ccc(-c2ccc(C3CCCCC3)cc2)s1` [Example 374] the value was 100 to 500 nM; for `COc1cc(C(=O)O)ccc1NS(=O)(=O)c1coc(-c2ccccc2)n1` [Example 375], below 100 nM; for `COc1cc(C(=O)O)ccc1NS(=O)(=O)N1Cc2nc(C3CCC(c4ccccc4)CC3)sc2C1` (stereo not shown) [Example 376, 3-methoxy-4-((2-(4-phenylcyclohexyl)-5,6-dihydro-4H-pyrrolo[3,4-d]thiazole)-5-sulfonamido)benzoic acid], below 100 nM.
As for `CCC[C@H]1CC[C@H](C2CC=C(c3ccc4c(c3)CN(S(=O)(=O)Nc3ccc(C(=O)O)cc3OC)C4)CC2)CC1` (stereo partly drawn) [Example 377, 3-methoxy-4-((5-((1S,1′s,4′S)-4′-propyl-[1,1′-bi(cyclohexan)]-3-en-4-yl)isoindoline)-2-sulfonamido)benzoic acid], the IC50 is 1000 to 100000 nM.
In the case of `COc1cc(C(=O)O)ccc1NS(=O)(=O)c1ccc(-c2cnc(-c3ccc(C4CCCCC4)cc3)s2)cc1` [Example 378, 4-((4-(2-(4-cyclohexylphenyl)thiazol-5-yl)phenyl)sulfonamido)-3-methoxybenzoic acid], the 50% inhibitory concentration (IC50) was in the range of 1000 to 100000 nM.
Consider `CCC[C@H]1CC[C@H](C2CC=C(c3nc(S(=O)(=O)Nc4ccc(C(=O)O)cc4OC)cs3)CC2)CC1` (stereo partly shown) [Example 379], for which the IC50 was 100 to 500 nM.
Take `COc1cc(C(=O)O)ccc1NS(=O)(=O)c1csc(-c2ccc(C3CCC(OC)CC3)cc2)n1` (stereo not shown) [Example 380]: the concentration for half-maximal inhibition (IC50) is 100 to 500 nM.
`CCC[C@H]1CC[C@H](C2CCC(c3nc(S(=O)(=O)Nc4ccc(C(=O)O)cc4OC)cs3)CC2)CC1` (stereo partly shown) [Example 381]: the concentration for half-maximal inhibition (IC50) lay within 100 to 500 nM.
In the case of `COc1cc(C(=O)O)ccc1NS(=O)(=O)c1csc(-c2ccc(-c3ccc4c(c3)OCCO4)cc2)n1` [Example 382], the IC50 was below 100 nM.
As for `COc1cc(C(=O)O)ccc1NS(=O)(=O)c1csc(-c2ccc(-c3ccc(-c4ccc5c(c4)OCCO5)cc3)cc2)n1` [Example 383], the IC50 is below 100 nM.
The value for `COc1cc(C(=O)O)ccc1NS(=O)(=O)N1Cc2nc(-c3ccc4c(c3)OCCO4)sc2C1` [Example 384] was 100 to 500 nM; that for `COc1cc(C(=O)O)ccc1NS(=O)(=O)c1cnc(-c2ccc(C3CCCCC3)cc2)s1` [Example 385] was below 100 nM; that for `COc1cc(C(=O)O)ccc1NS(=O)(=O)N1Cc2nc(-c3ccc4c(c3)CCCC4)sc2C1` [Example 386] was 100 to 500 nM.
The value for `O=C(O)c1ccc2cc(NS(=O)(=O)c3cnc(-c4ccc(F)cc4)s3)ccc2c1` [Example 387, 6-((2-(4-fluorophenyl)thiazole)-5-sulfonamido)-2-naphthoic acid] was 1000 to 100000 nM; that for `O=C(O)c1ccc2sc(NS(=O)(=O)c3cnc(-c4ccc(F)cc4)s3)nc2c1` [Example 388, 2-((2-(4-fluorophenyl)thiazole)-5-sulfonamido)benzo[d]thiazole-5-carboxylic acid] was 1000 to 100000 nM.
As for `COc1cc(-c2ccc(C(=O)O)cc2)ccc1NS(=O)(=O)c1cnc(-c2ccc(F)cc2)s1` [Example 389, 4′-((2-(4-fluorophenyl)thiazole)-5-sulfonamido)-3′-methoxy-[1,1′-biphenyl]-4-carboxylic acid], the concentration for half-maximal inhibition (IC50) is 1000 to 100000 nM.
In the case of `COc1cc(-c2ccc(C(=O)O)cc2OC)ccc1NS(=O)(=O)c1cnc(-c2ccc(F)cc2)s1` [Example 390], the 50% inhibitory concentration (IC50) was in the range of 1000 to 100000 nM.
Turning to `COc1cc(C(=O)O)ccc1NS(=O)(=O)c1csc(C#Cc2ccc(C(N)=O)c(OC(F)(F)F)c2)n1` [Example 391], the half-maximal inhibitory concentration (IC50) was in the range of 100 to 500 nM.
For `CCOP(=O)(OCC)c1ccc(NS(=O)(=O)c2csc(C#Cc3cccc(OC(F)(F)F)c3)n2)c(OC)c1` [Example 392, diethyl (3-methoxy-4-((2-((3-(trifluoromethoxy)phenyl)ethynyl)thiazole)-4-sulfonamido)phenyl)phosphonate] the value was 1000 to 100000 nM; for `COc1cc(C(=O)O)ccc1NS(=O)(=O)c1csc(C#Cc2ccc(F)c(OC(F)(F)F)c2)n1` [Example 393, 4-((2-((4-fluoro-3-(trifluoromethoxy)phenyl)ethynyl)thiazole)-4-sulfonamido)-3-methoxybenzoic acid], below 100 nM; for `COc1cc(C(=O)O)ccc1NS(=O)(=O)c1csc(C#Cc2ccc(C(=O)O)c(OC(F)(F)F)c2)n1` [Example 394], 1000 to 100000 nM.
For `COc1cc(C(=O)O)ccc1NS(=O)(=O)c1csc(C#Cc2ccc(OC)c(OC(F)(F)F)c2)n1` [Example 395] the value was below 100 nM.

The record behind these values is patent US12384753B2, “17-beta-hydroxysteroid dehydrogenase type 13 inhibitors and methods of use thereof” (Enanta Pharmaceuticals, Inc., priority 2021, dated 2025).
